Observed efficacy and inhibition of growth data for 20 compounds are collected here from patent publication US20150313225A1.

Each structure is given as a SMILES string. Where two headings read alike, the source gives them in different places.

What all share (type): cell-based
Experiment [1] relates to Alternaria solani. As to the kind of experiment: Microtest against early blight caused by Alternaria solani (Alteso). The note with it: solo product; for inhibition of growth at […]: 0.063 ppm.
Experiment [2] has as its system Septoria tritici. In words: Microtest against leaf blotch on wheat caused by Septoria tritici (Septtr). The conditions noted are these: solo product.
Experiment [3] deals with Pyricularia oryzae. As to the kind of experiment: microbe, parasite or virus in culture. The conditions noted are these: for Observed efficacy: solo product.
Experiment [4] concerns Leptosphaeria nodorum. As to the kind of experiment: Microtest against wheat leaf spots caused by Leptosphaeria nodorum (Leptno). The note with it: solo product.
In experiment [5] the test system is Botrytis cinerea. As to the kind of experiment: Microtiterplate test against the grey mold Botrytis cinerea (Botrci). The note with it: solo product.
For experiment [6], the system named is Phytophthora infestans. In words: microbe, parasite or virus in culture. The note with it: for Observed efficacy: solo product.
[7] abbreviates: Alternaria solani, 168 h, 0.001 ppm, read-out: Observed efficacy.
The mark [8] stands for this setting: Alternaria solani, 168 h, 0.004 ppm, read-out: Observed efficacy.
[9] abbreviates: Alternaria solani, 168 h, 0.016 ppm, read-out: Observed efficacy.
[10] abbreviates: Alternaria solani, 168 h, read-out: Observed efficacy.
The mark [11] stands for this setting: Botrytis cinerea, 168 h, 0.016 ppm, read-out: Observed efficacy.
Where [12] appears, read: Botrytis cinerea, 168 h, 0.063 ppm, read-out: Observed efficacy.
The mark [13] stands for this setting: Zymoseptoria tritici, 168 h, read-out: Observed efficacy.
Setting [14] is: Botrytis cinerea, 168 h, 0.25 ppm, read-out: Observed efficacy.
The mark [15] stands for this setting: Botrytis cinerea, 168 h, read-out: Observed efficacy.
Setting [16] is: Pyricularia oryzae, 168 h, read-out: Observed efficacy.
The mark [17] stands for this setting: Parastagonospora nodorum, 168 h, read-out: Observed efficacy.
[18] abbreviates: Parastagonospora nodorum, 168 h, 0.016 ppm, read-out: Observed efficacy.
Where [19] appears, read: Alternaria solani, 168 h, 4 ppm, read-out: Observed efficacy.
The mark [20] stands for this setting: Alternaria solani, 168 h, 16 ppm, read-out: Observed efficacy.
Where [21] appears, read: Botrytis cinerea, 168 h, 4 ppm, read-out: Observed efficacy.
[22] abbreviates: Botrytis cinerea, 168 h, 16 ppm, read-out: Observed efficacy.
The mark [23] stands for this setting: Alternaria solani, 168 h, 63 ppm, read-out: Observed efficacy.
The mark [24] stands for this setting: Phytophthora infestans, 168 h, read-out: Observed efficacy.

With `CC1COC(Cn2cncn2)(c2ccc(Oc3ccc(Cl)cc3)cc2Cl)O1` (centres unmarked) [Difenoconazol], the Observed efficacy in experiment [1] (0.004 ppm) is on record as 5; in experiment [1] (0.016 ppm), 5; in experiment [2] (0.016 ppm), 26; in experiment [3] (1 ppm) it was 11; in experiment [4] (0.016 ppm), 29.
On to `Fc1ccc([C@]2(Cn3cncn3)O[C@H]2c2ccccc2Cl)cc1` [Epoxiconazol], for which the Observed efficacy is 5 in experiment [1] (0.004 ppm), 8 in experiment [1] (0.016 ppm), 11 in experiment [5] (0.016 ppm) and 16 in experiment [2] (0.016 ppm).
In experiment [6] (4 ppm), `O=c1c2cc(F)ccc2nc(-n2cncn2)n1-c1ccc(Cl)cc1Cl` [Fluquinconazol] yielded an Observed efficacy of 0.
For the compound `CC(C)C(O)(Cn1cncn1)c1ccc(Oc2ccc(Cl)cc2)cc1Cl` (centres unmarked) [I-19, 2-[2-chloro-4-(4-chlorophenoxy)phenyl]-3-methyl-1-(1,2,4-triazol-1-yl)butan-2-ol], the inhibition of growth at 0.001 ppm in experiment [1] (setting [7]) came out at 1%; in experiment [2] (setting [13]), 20%. Also, the inhibition of growth at 0.004 ppm in experiment [1] (setting [8]) was found to be 0%. For the same compound, the inhibition of growth at 0.016 ppm worked out at 0% in experiment [1] (setting [9]) and 20% in experiment [5] (setting [11]). The inhibition of growth at […] turned out to be 25% in experiment [1] (setting [10]); 29% in experiment [5] (setting [12]); 64% in experiment [4] (Parastagonospora nodorum, 168 h, 0.25 ppm, read-out: Observed efficacy). Also, in experiment [2] (Zymoseptoria tritici, 168 h, 0.000016 ppm, read-out: Observed efficacy), the inhibition of growth at 1.6e-05 ppm was 12%. For the same compound, the inhibition of growth at 6.3e-05 ppm in experiment [2] (setting [13]) turned out to be 13%.
For the compound `COC(C)(Cn1cncn1)c1ccc(Oc2ccc(Cl)cc2)cc1Cl` (centres unmarked) [I-20, 1-[2-[2-chloro-4-(4-chlorophenoxy)phenyl]-2-methoxy-propyl]-1,2,4-triazole], the inhibition of growth at 0.004 ppm in experiment [1] (setting [8]) was 0%; in experiment [4] (setting [17]), 10%. The figures for the inhibition of growth at […] in experiment [1] (setting [10]), in experiment [5] (setting [12]) and in experiment [5] (setting [14]) were 30%, 16% and 16%, respectively. Also, in experiment [5] (setting [15]), the inhibition of growth at 1 ppm came to 58%. Also, the inhibition of growth at 0.001 ppm in experiment [2] (setting [13]) and in experiment [4] (setting [17]) was 5% throughout. The inhibition of growth at 0.016 ppm in experiment [3] (setting [16]) worked out at 0%; in experiment [4] (setting [18]), 14%.
With `COCC(O)(Cn1cncn1)c1ccc(Oc2ccc(Cl)cc2)cc1Cl` (centres unmarked) [I-26, 2-[2-chloro-4-(4-chlorophenoxy)phenyl]-1-methoxy-3-(1,2,4-triazol-1-yl)propan-2-ol], the inhibition of growth at 0.001 ppm is 5% in experiment [1] (setting [7]), 29% in experiment [2] (setting [13]) and 9% in experiment [4] (setting [17]). Besides, the inhibition of growth at 0.016 ppm stood at 4% in experiment [1] (setting [9]), 0% in experiment [3] (setting [16]) and 24% in experiment [4] (setting [18]). For the same compound, the inhibition of growth at […] in experiment [5] (setting [12]) was found to be 44%. Moreover, the inhibition of growth at 6.3e-05 ppm in experiment [2] (setting [13]) was determined as 19%. Moreover, the inhibition of growth at 1 ppm in experiment [3] (setting [16]) worked out at 55%. In addition, the inhibition of growth at 0.004 ppm in experiment [4] (setting [17]) is 15%.
`CCCCCCCCc1c(CC)nc2ncnn2c1N` [II-1, ametoctradin, reference compound]: the Observed efficacy in experiment [1] (4 ppm) is recorded as 5; in experiment [1] (16 ppm), 2; in experiment [1] (63 ppm) it was 6; in experiment [6] (1 ppm), 75; in experiment [5] (16 ppm), 3; in experiment [5] (63 ppm), 4.
For the compound `CCOC(=O)C1CC(=O)C(=C(O)C2CC2)C(=O)C1` (centres unmarked) [II-3a, trinexapac-ethyl, reference compound], the inhibition of growth at 4 ppm in experiment [1] (setting [19]) is 12%; in experiment [5] (setting [21]), 7%; in experiment [2] (Zymoseptoria tritici, 168 h, 4 ppm, read-out: Observed efficacy), 13%; in experiment [3] (setting [16]) it was 5%. In addition, the inhibition of growth at 16 ppm in experiment [1] (setting [20]) was 27%; in experiment [5] (setting [22]), 5%; in experiment [3] (setting [16]), 21%. For the same compound, the inhibition of growth at 63 ppm in experiment [5] (Botrytis cinerea, 168 h, 63 ppm, read-out: Observed efficacy) amounted to 15%; in experiment [3] (setting [16]) it was 81%.
Consider `Cn1cc(C(=O)Nc2ccc(F)cc2-c2ccc(Cl)c(Cl)c2)c(C(F)F)n1` [II-6, bixafen, reference compound], for which the Observed efficacy in experiment [1] (0.001 ppm) is 5; in experiment [1] (0.004 ppm) it was 38; in experiment [5] (0.016 ppm), 8; in experiment [3] (0.016 ppm), 2.
With `O=C(Nc1ccccc1-c1ccc(Cl)cc1)c1cccnc1Cl` [II-7, boscalid, reference compound], in experiment [1] (setting [7]), the inhibition of growth at 0.001 ppm was 5%. Moreover, the inhibition of growth at 0.004 ppm in experiment [1] (setting [8]) turned out to be 6%. Also, the inhibition of growth at […] in experiment [5] (setting [14]) was 38%. Also, in experiment [3] (setting [16]), the inhibition of growth at 16 ppm was 2%. In addition, in experiment [4] (Parastagonospora nodorum, 168 h, 4 ppm, read-out: Observed efficacy), the inhibition of growth at 4 ppm stood at 23%.
For `COC(=O)Nc1nc2ccccc2[nH]1` [II-8, carbendazim, reference compound], in experiment [1] (setting [19]), the inhibition of growth at 4 ppm was 7%. Moreover, the inhibition of growth at 16 ppm in experiment [1] (setting [20]) turned out to be 10%; in experiment [2] (Zymoseptoria tritici, 168 h, 16 ppm, read-out: Observed efficacy), 16%. In addition, in experiment [1] (setting [23]), the inhibition of growth at 63 ppm worked out at 34%. In addition, in experiment [5] (Botrytis cinerea, 168 h, 0.004 ppm, read-out: Observed efficacy), the inhibition of growth at 0.004 ppm came out at 5%. In addition, the inhibition of growth at 0.016 ppm in experiment [5] (setting [11]) came to 3%.
`N#Cc1nn(-c2c(Cl)cc(C(F)(F)F)cc2Cl)c(N)c1[S+]([O-])C(F)(F)F` (centres unmarked) [II-20c, fipronil, reference compound]: the inhibition of growth at 1 ppm is 6% in experiment [1] (Alternaria solani, 168 h, 1 ppm, read-out: Observed efficacy) and 4% in experiment [6] (setting [24]). Moreover, the inhibition of growth at 4 ppm in experiment [1] (setting [19]) turned out to be 2%; in experiment [3] (setting [16]), 1%. The inhibition of growth at 16 ppm in experiment [3] (setting [16]) amounted to 8%.
In the case of `N#Cc1c[nH]cc1-c1cccc2c1OC(F)(F)O2` [II-34, fludioxonil, reference compound], the inhibition of growth at 0.016 ppm in experiment [3] (setting [16]) is 36%.
In the case of `CO/N=C(/C1=NOCCO1)c1ccccc1Oc1ncnc(Oc2ccccc2Cl)c1F` [II-37, fluoxastrobin, reference compound], the inhibition of growth at 0.016 ppm in experiment [1] (setting [9]) amounted to 11%; in experiment [6] (setting [24]), 4%; in experiment [3] (setting [16]) it was 8%. Moreover, the inhibition of growth at […] in experiment [1] (setting [10]) was 27%. Besides, in experiment [5] (setting [15]), the inhibition of growth at 1 ppm came to 5%. Also, the inhibition of growth at 4 ppm in experiment [5] (setting [21]) worked out at 10%. Also, the inhibition of growth at 16 ppm in experiment [5] (setting [22]) amounted to 23%. For the same compound, in experiment [3] (setting [16]), the inhibition of growth at 0.004 ppm worked out at 3%.
`Cn1cc(C(=O)Nc2ccccc2-c2cc(F)c(F)c(F)c2)c(C(F)F)n1` [II-42, fluxapyroxad, reference compound] gave an Observed efficacy in experiment [1] (0.001 ppm) of 4.
As for `Cc1ccc(C(C)NC(=O)[C@@H](NC(=O)OC(C)C)C(C)C)cc1` (some centres unmarked) [II-51, iprovalicarb, reference compound], the Observed efficacy in experiment [1] (4 ppm) was found to be 1; in experiment [1] (16 ppm) it was 2; in experiment [1] (63 ppm), 1; in experiment [5] (4 ppm), 2; in experiment [5] (16 ppm), 3; in experiment [5] (63 ppm) it was 6. For the same compound, the Observed efficacy in experiment [3] (4 ppm) is 0; in experiment [4] (16 ppm), 19.
Turning to `CON=C(C(=O)OC)c1ccccc1CON=C(C)c1cccc(C(F)(F)F)c1` [II-92, trifloxystrobin, reference compound], the inhibition of growth at 0.004 ppm in experiment [1] (setting [8]) was 7%; in experiment [3] (setting [16]), 11%. The figures for the inhibition of growth at 0.016 ppm in experiment [1] (setting [9]) and in experiment [3] (setting [16]) were 11% and 26%, respectively. Further, the inhibition of growth at 4 ppm in experiment [5] (setting [21]) was determined as 2%. Besides, the inhibition of growth at 16 ppm in experiment [5] (setting [22]) was 6%. Also, in experiment [4] (Parastagonospora nodorum, 168 h, 0.063 ppm, read-out: Observed efficacy), the inhibition of growth at […] came out at 39%.
`CCN(Cc1ccc(Cl)nc1)/C(=C/[N+](=O)[O-])NC` [Nitenpyram]: the inhibition of growth at 4 ppm stood at 2% in experiment [1] (setting [19]) and 1% in experiment [3] (setting [16]). Moreover, the figures for the inhibition of growth at 16 ppm in experiment [1] (setting [20]) and in experiment [3] (setting [16]) were 2% and 0%, respectively. For the same compound, the inhibition of growth at 63 ppm in experiment [1] (setting [23]) was determined as 8%; in experiment [2] (Zymoseptoria tritici, 168 h, 63 ppm, read-out: Observed efficacy), 10%; in experiment [3] (setting [16]), 3%; in experiment [4] (Parastagonospora nodorum, 168 h, 63 ppm, read-out: Observed efficacy), 23%.
In the case of `CCC(=O)C1=C([O-])CC(C(=O)[O-])CC1=O.[Ca+2]` (centres unmarked) [Prohexadion-ca], the Observed efficacy in experiment [1] (4 ppm) is on record as 6; in experiment [1] (16 ppm), 2; in experiment [5] (4 ppm) it was 10; in experiment [5] (16 ppm), 5; in experiment [5] (63 ppm), 4; in experiment [2] (63 ppm), 15. Also, the Observed efficacy in experiment [3] (4 ppm) worked out at 2; in experiment [3] (16 ppm) it was 2; in experiment [3] (63 ppm) it was 3.
For the compound `CC1(C)CC/C(=C\c2ccc(Cl)cc2)C1(O)Cn1cncn1` (centres unmarked) [Triticonazol], the Observed efficacy in experiment [3] (1 ppm) amounted to 1; in experiment [3] (4 ppm) it was 59.
